According to patent US20040127519A1 (Pharmacia Corporation, priority 2002, published 2004):

These compounds were tested against Recombinant MAPKAPK2 (Homo sapiens, UniProt P49137) (assay: Determination of MK-2 IC50 (HSP-peptide phosphorylation, anion exchange resin capture assay)). Details: MK-2 Avg. IC50, Table 2, tricyclic aminocyanopyridine MK-2 inhibitors.
Format: biochemical
Method: The phosphorylation of HSP-peptide ([…]) by MAPKAPK2 was measured using an anion exchange resin capture assay method. […] The reaction was terminated and [γ^33P]ATP was removed from solution by the addition of 150 μl of AG 1×8 ion exchange resin in 900 mM sodium formate pH 3.0. A 50 μl aliquot of head volume was removed from the quenched reaction mixture and added to a 96-well plate, 150 μl of Microscint-40 (Packard) was added and the amount of phosphorylated-peptide was determined. Allow the Microscint to sit in the plates for 60 minutes prior to counting.
Compounds are evaluated as potential inhibitors of the MK2 kinase by measuring their effects on MK2 phosphorylation of the peptide substrate. Compounds may be screened initially at two concentrations prior to determination of IC50 values. Screening results are expressed as percent inhibition at the concentrations of compound tested. For IC50 value determinations, compounds are tested at six concentrations in ten-fold serial dilutions with each concentration tested in triplicate. Results are expressed as IC50 values in micromolar. The assay is performed at a final concentration of 2% DMSO.

Recombinant MAPKAPK2, sequence (P49137 whole entry, species assumed): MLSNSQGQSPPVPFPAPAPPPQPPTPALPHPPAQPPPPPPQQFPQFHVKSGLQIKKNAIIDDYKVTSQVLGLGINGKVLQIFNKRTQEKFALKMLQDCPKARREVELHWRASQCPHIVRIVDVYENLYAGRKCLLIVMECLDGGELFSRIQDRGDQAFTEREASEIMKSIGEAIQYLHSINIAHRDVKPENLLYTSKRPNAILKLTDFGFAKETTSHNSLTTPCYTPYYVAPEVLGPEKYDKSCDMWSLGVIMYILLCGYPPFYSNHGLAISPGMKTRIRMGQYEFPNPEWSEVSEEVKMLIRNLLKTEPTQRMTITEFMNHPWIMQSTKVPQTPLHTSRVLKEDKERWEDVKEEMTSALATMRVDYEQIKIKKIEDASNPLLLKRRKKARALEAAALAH

Q: With `N#Cc1c(N)nc2c(c1N)Cc1cc(-c3ccccc3)ccc1O2` [Example 65] as the compound, how does the IC50 read?
A: Its IC50 is 83.8 µM.

Q: With `C=CCOc1cc2c(cc1OCC=C)Oc1nc(N)c(C#N)c(N)c1C2` [Example 43] as the compound, how does the IC50 read?
A: Its IC50 is 9.6 µM.

Q: How did the IC50 turn out when `COc1cccc2c1Oc1nc(N)c(C#N)c(N)c1C2C(C#N)C#N` (stereo not shown) [Example 54] was run?
A: Its IC50 is 21.2 µM.

Q: For `N#Cc1c(N)nc2c(c1N)Cc1cc(O)ccc1S2` [Example 51], which IC50 is on record?
A: Its IC50 is 17.4 µM.

Q: `N#Cc1c(N)nc2c(c1N)Cc1cc(Br)ccc1O2` [Example 49] was tested. Which IC50 did it give?
A: The IC50 was 15.1 µM.

Same assay, conditions: MK-2 Avg. IC50, Table I, aminocyanopyridine MK-2 inhibitors

Q: With `COc1ccccc1-c1c(C#N)c(N)nc2c1CCc1n[nH]cc1-2` [Example 129] as the compound, how does the IC50 read?
A: Its IC50 is 136 µM.

Q: For `Cn1cccc1-c1cc(-c2ccco2)c(C#N)c(N)n1` [Example 83], which IC50 is on record?
A: Its IC50 is 54.4 µM.

Q: How did the IC50 turn out when `N#Cc1c(-c2ccc(F)cc2)cc(-c2ccco2)nc1N` [Example 140] was run?
A: Its IC50 is 165 µM.

Q: With `N#Cc1c(N)nc2ccccc2c1C(=O)O` [Example 137] as the compound, how does the IC50 read?
A: The IC50 was 161 µM.

Q: How did the IC50 turn out when `COc1ccc(-c2cc(-c3ccccc3F)c(C#N)c(N)n2)cc1` [Example 94] was run?
A: The IC50 was 70.4 µM.

Q: How did the IC50 turn out when `CC(C)(C)OCC1Cc2c(nc(N)c(C#N)c2N)O1` (stereo not shown) [Example 141] was run?
A: The IC50 was 167 µM.

Q: `N#Cc1c(-c2ccccc2O)cc(-c2ccco2)nc1N` [Example 146] was tested. Which IC50 did it give?
A: The IC50 was 185 µM.

Each compound was assayed on U937 cell TNFα release (assay: U937 Cell TNFα Release Assay (LPS-stimulated, TNFα ELISA)). Details: Homo sapiens, U-937, U937 cells.
Format: cell-based
Method: U937 Cell TNFα Release Assay
The human monocyte-like cell line, U937 (ATCC #CRL-1593.2), is cultured in RPMI1640 media with 10% heat-inactivated fetal calf serum (GIBCO), glutamine and pen/strep at 37° C. and 5% CO2. Differentiation of U937 to monocytic/macrophage-like cells is induced by the addition of phorbol12-myristate 13-acetate (Sigma) at final concentration of 20 ng/ml to a culture of U937 cells at ˜0.5 million cells/ml and incubated for 24 hrs. The cells are centrifuged, washed with PBS and resuspended in fresh media without PMA and incubated for 24 hrs. Cells adherent to the culture flask are harvested by scraping, centrifugation, and resuspended in fresh media to 2 million cells/ml, and 0.2 ml is aliquoted to each of 96 wells in flat-bottom plate. Cells are then incubated for an additional 24 hrs to allow for recovery. […]
ELISA plates (NUNC-Immuno™ Plate Maxisorb™ Surface) were coated with purified mouse monoclonal IgG1 anti-human TNFα antibody (R&D Systems #MAB610; 1.25 ug/ml in sodium bicarbonate pH 8.0, 0.1 ml/well) and incubated at 4° C. […] Enzymatic conversion of ABTS to colored product was measured after 5-30 minutes using a SpectroMax 340 spectrophotometer (Molecular Devices) at 405 nm. TNF levels were quantitated from a recombinant human TNFα (R&D Systems #210-TA-010) standard curve using a quadratic parameter fit generated by SoftMaxPRO software. […]

Q: Which IC50 does the source give for `N#Cc1c(N)nc2c(c1-c1cccnc1)CCCCCC2` [Example 225, 2-amino-4-pyridin-3-yl-5,6,7,8,9,10-hexahydrocycloocta[b]pyridine-3-carbonitrile] here?
A: The IC50 was 6.9 µM.

Q: How did the IC50 turn out when `C=CCNc1sc2c(-c3ccc(Br)cc3)c(C#N)c(N)nc2c1C#N` [Example 224, 2-(allylamino)-5-amino-7-(4-bromophenyl)thieno[3,2-b]pyridine-3,6-dicarbonitrile] was run?
A: The IC50 was 2.9 µM.

These compounds were tested on TNFα production (assay: Lipopolysaccharide (LPS)-induced TNFα production in rats (Rat LPS assay, serum TNFα ELISA)). Details: 20 mpk (IP).
Format: in vivo, Lewis rats

Q: Which inhibition at 20 mg/kg does the source give for `N#Cc1c(N)nc2c(c1-c1cccnc1)CCCCCC2` [Example 225, 2-amino-4-pyridin-3-yl-5,6,7,8,9,10-hexahydrocycloocta[b]pyridine-3-carbonitrile] here?
A: Its inhibition at 20 mg/kg is 88%.

Q: How did the inhibition at 20 mg/kg turn out when `C=CCNc1sc2c(-c3ccc(Br)cc3)c(C#N)c(N)nc2c1C#N` [Example 224, 2-(allylamino)-5-amino-7-(4-bromophenyl)thieno[3,2-b]pyridine-3,6-dicarbonitrile] was run?
A: The inhibition at 20 mg/kg was 60%.
